Measurements as given in PMC9654784, “Targeting SARS-CoV-2 nsp13 Helicase and Assessment of Druggability Pockets: Identification of Two Potent Inhibitors by a Multi-Site In Silico Drug Repurposing Approach” (Molecules, 2022).

Tests used:
SARS-CoV-2 nsp13 [1] = target: T1, SARS-CoV-2 nsp13 (Severe acute respiratory syndrome coronavirus 2, UniProt P0DTD1); test: SARS-CoV-2 nsp13 unwinding-associated activity; type: biochemical; conditions: for IC50: concentration required to inhibit nsp13-associated unwinding activity by 50%, 1 nM nsp13, 1 mM ATP, 750 nM DNA substrate; for Percentage of control, unwinding activity: measured in the presence of the highest tested compound concentration
Description: (§1) The SARS-CoV-2 nsp13 his-tagged was expressed in E. coli BL21 Rosetta 2 cells from a pNIC-ZB (addgene #159614). A purification protocol was adopted from Newman et al.. Terrific Broth media was used to culture the cells at 37 °C and at 200 rpm until 1.6 OD600. Then, protein expression was induced with […] for 16 h at 18 °C, at 200 rpm, and then pelleted and resuspended in lysis buffer (50 mM HEPES pH 7.5, 500 mM NaCl, 5% Glycerol, 10 mM Imidazole, 0.5 mM TCEP, Merck Protease inhibitor cocktail III, 1:500). After sonication and clarification at 15,000× g for 30 min, the crude extract was used for a batch binding of 40 min in a three-dimensional rotating mixer with 5 mL of Ni-sepharose (cytiva) under orbital. Then, the tubes were centrifuged at 700× g at 4 °C for 5 min, and the resin was loaded onto a gravity flow column (econo column BioRad) connected to a BioLogic LP (BioRad). It was subsequently washed (1 mL/min) with a lysis buffer for 40 min and with a wash buffer (50 mM HEPES pH 7.5, 500 mM NaCl, 5% Glycerol, 45 mM Imidazole, 0.5 mM TCEP) for 25 min. A further 10 min wash with a Hi-salt buffer (50 mM HEPES pH 7.5, 1 M NaCl, 5% Glycerol, 0.5 mM TCEP) was performed, followed by another 10 min of wash buffer. Proteins were eluted with the addition of 15 mL of elution buffer (50 mM HEPES pH 7.5, 500 mM NaCl, 5% Glycerol, 300 mM Imidazole, 0.5 mM TCEP). The elution fraction was analyzed for purity by SDS page, and clean fractions were pooled and dialyzed against a desalting buffer containing 25 mM HEPES pH 7.5, 250 mM NaCl, 20% Glycerol, and 0.25 mM TCEP. Proteins were stored at −80 °C.
The SARS-CoV-2 nsp13 unwinding-associated activity was measured in black 384-well plates (PerkinElmer). The reaction mixture, as described in [34], contained 20 mM Tris–HCl pH 7.2. 50 mM NaCl, 2 mM MgCl2, 10 μg/mL of BSA, 180 μM TCEP, 2 μM Hel Capture oligo (5′- […] -3′) (Biomers) 5% DMSO or inhibitor, and 1 nM of purified nsp13. The enzyme was pre-incubated for 10 min with the inhibitor at room temperature, and then reaction was started by adding 1 mM ATP and 750 nM annealed DNA substrate (5′- […]-Cy3-3′. 5′- BHQ-2-[…]-3′) (Biomers). Reaction volume was 40 μL. Compounds SSYA10-001 and Licoflavone C were used as positive controls of inhibition; the reaction lasted for 15 min at 37 °C, and then the products were measured with Victor Nivo (Perkin) at 530/580 nm.

SARS-CoV-2 nsp13 [2] = target: T1, SARS-CoV-2 nsp13; test: SARS-CoV-2 nsp13 ATPase (NTPase)-associated activity; type: biochemical; conditions: for Percentage of control, NTPase activity: measured in the presence of the highest tested compound concentration
Description: as §1
The SARS-CoV-2 nsp13 helicase-associated activity was measured in a transparent 96-well plate (PerkinElmer), as described in [34]. Briefly, the reaction mixture contained 20 mM Tris–HCl pH 7.2, 50 mM NaCl, 2 mM MgCl2, 10 µg/mL of BSA, 180 µM TCEP, 5% DMSO or inhibitor, and 25 nM of purified nsp13. The reaction was started by adding 400 µM ATP. Total reaction volume was 25 μL. Compound Licoflavone C was used as positive control of inhibition. The reaction lasted for 30 min at 37 °C. […] The products were measured with Victor Nivo (Perkin) at 650 nm.

[3] = concentration required to inhibit nsp13-associated ATPase activity by 50%, 25 nM nsp13, 400 µM ATP

Row | Compound | IC50 (SARS-CoV-2 nsp13 [1]) | Percentage of control, unwinding activity (SARS-CoV-2 nsp13 [1]) | IC50 (SARS-CoV-2 nsp13 [2]; [3]) | Percentage of control, NTPase activity (SARS-CoV-2 nsp13 [2]) | IC50 NTPase (SARS-CoV-2 nsp13 [2]; [3])
1 | OC[C@H]1O[C@@H](Oc2cc(O)cc(/C=C/c3ccc(O)cc3)c2)[C@H](O)[C@@H](O)[C@@H]1O [Polydatin] | > 30 µM | 100% | > 30 µM | 100% | –
2 | CC(C)(C)c1cc(NC(=O)NCc2ccccc2Sc2ccc3nnc(-c4ccccc4SCCO)n3c2)n(-c2ccc(O)c(Cl)c2)n1 [PF-03715455] | 3.02 ± 0.21 µM | – | 9.26 ± 1.93 µM | – | –
3 | CC(C)=CCc1c(O)cc(O)c2c(=O)cc(-c3ccc(O)cc3)oc12 [Licoflavone C] | 8.7 ± 1.3 µM | – | 20.9 ± 0.8 µM | – | –
4 | C=CCn1c(CSc2ccccc2[N+](=O)[O-])n[nH]c1=S [SSYA10-001] | 2.3 ± 0.7 µM | – | – | – | –
5 | nicotinamide adenine dinucleotide [NADH] | – | 100% | – | 100% | –
6 | CCO/N=C(\C(=O)N[C@@H]1C(=O)N2C(C(=O)[O-])=C(Sc3nc(-c4cc[n+](C)cc4)cs3)CS[C@H]12)c1nsc(NP(=O)(O)O)n1 [Ceftaroline fosamil] | > 30 µM | 100% | > 30 µM | 100% | –
7 | CC(C)(Cc1cccc(CC(=O)NCc2cccc(-c3ccc(O)cc3)c2)c1)NC[C@H](O)c1ccc(O)c(NS(C)(=O)=O)c1 [PF-00610355] | 22.4 ± 1.7 µM | – | > 30 µM | 100% | not active
